Laboratory results taken from patent US4547507A, “Benzothiopyranopyridinones” (Roussel Uclaf, priority 1982, dated 1985).
Where a name gives a salt, the structure may show the parent alone.

What was measured:
[1] = molecular target: rat striatal dopamine receptor (Rattus norvegicus, UniProt P61169); experiment: Test A: [3H]Spiroperidol displacement from rat striatal dopamine receptor binding sites; details: rat striatal membranes, [3H]spiroperidol 0.19 nM, 37° C., 10 minutes, pH 7.6; read-out: Test A receptor DA IC50
Protocol: Test A--[^3 H Spiroperidol displacement from rat striatal dopamine receptor binding sites
(a) Radioligand--[phenyl-4-(n)-^3 H]Spiroperido (Amersham International, TRK 570, 21 Ci/mmol was used as a 1 μCi/1 μl solution in ethanol and this solution was diluted to 250 μCi in 1 ml of ethanol to produce a stock solution. This stock solution was diluted 3.2/10,000 in assay buffer and 0.1 ml volumes of this were added to 2 ml binding assays =0.19 nM [^3 H]spiroperidol and =[…]
(b) Assay buffer--The assay buffer was a modified 50 mM Tris HCl buffer with a pH of 7.6 containing the following additions: NaCl-120 mM, KCl-5 mM, MgCl2 -1 mM, CaCl2 -2 mM, Pargyline-10 μM and 1-Ascorbic Acid-0.1%
(c) Membrane preparation--The striata were dissected from male CFHB rats and homogenized in 20 volumes of ice cold 0.32M sucrose with a Teflon/glass homogenizer and the homogenate was centrifuged at 1000 g for 10 minutes. The resulting supernatant was recentrifuged at 30,000 g for 30 minutes and the supernatant was discarded and the pellet was resuspended by homogenization in 30 volumes of ice cold assay buffer.
(d) Non-specific binding--Non-specific binding was accounted for by the inclusion of 1 μM(+)butaclamol in blank binding assays which required a stock solution of 20 μM in distilled water.
(e) Displacing compounds--Solutions were prepared at 20x final assay concentration in distilled water.
(f) Binding assay protocol--1.3 ml assay buffer, 0.5 ml membrane suspension, 0.1 ml distilled H2 O or drug solution and 0.1 ml [^3 H]spiroperidol dilution Binding assays were made up in ice with the [^3 H]spiroperidol being added last and incubated at 37° C. for 10 minutes. The bound ligand was separated by filtration through Whatman GF/C filters under vacuum followed by 2×10 ml rinses of ice cold assay buffer. The filters were dried at 80° C. and counted in 5 ml volumes of ECONOFLUOR (NEN) scintillation cocktail. All binding assays, controls, blanks and each of four displacer concentration were run in triplicate. IC50 values (Test A) were obtained graphically from log dose versus percent inhibition of specific binding plots.

rat cortical α1 receptor = experiment: Test B: [3H]Prazosin displacement from rat cortical α1 receptor binding sites; details: rat cerebral cortex membranes, [3H]prazosin 0.1 nM, 25° C., 30 minutes, pH 7.5
Protocol: Test B--[^3 H]Pyrazosin displacement from rat cortical α1 receptor binding sites (a) Radioligand--[^3 H]Prazosin (Amersham International, TRK 647, 28 Ci/mmole) was used as a 1 μCi/1 μl solution and this stock solution was diluted 1/18,000 in assay buffer and 0.1 ml volumes of this were added to 2 ml binding assay. =0.1 nM [^3 H]Prazosin and =0.0056 μCi/binding assay (b) Membrane preparation--The cerebral cortices were dissected from male CFHB rats and homogenized in 20 volumes of ice cold 0.32M sucrose using a Teflon/glass homogenizer and the homogenate was centrifuged at 1000 g for 10 minutes. The resulting pellet was discarded and the supernatant was recentrifuged at 30,000 g for 30 minutes. The supernatant was discarded and the pellet was resuspended by homogenization in 50 volumes of 50 mM pH 7.5 Tris HCl buffer (assay buffer). (c) Non-specific binding--Non-specific binding was accounted for by the inclusion of 100 μM 1-noradrenaline in blank binding assays which required a stock solution of 2 mM 1-noradrenaline made up fresh daily in 0.1% 1-ascorbic acid. (d) Displacing compounds--Solutions were prepared at 20x final assay concentration in distilled water. (e) Binding assay protocol--1.3 ml assay buffer, 0.5 ml membrane suspension, 0.1 ml distilled H2 O or drug solution and 0.1 ml [^3 H]pyrazosin dilution Binding assays were made up in ice with the [^3 H]pyrazosin being added last and incubated at 25° C. for 30 minutes. The bound ligand was separated by filtration through Whatman GF/C glass fibre filters under vacuum followed by 2×10 ml rinses of ice cold assay buffer. The filters were dried at 80° C. and counted in 5 ml volumes of ECONOFLUOR (NEN) scintillation cocktail. All binding assays, controls, blanks and each of four displacer concentrations were run in triplicate. IC50 values (Test B) were obtained graphically from log dose versus percent inhibition of specific binding plots.

rat cortical α2 receptor = experiment: Test C: [3H]Dihydroergocryptine displacement from rat cortical α2 receptor binding sites; details: rat cortical membranes, [3H]dihydroergocryptine 0.45 nM, 25° C., 45 minutes in the dark; approximately 80% of binding is α2
Protocol: Test C--[^3 H]Dihydroergocryptine displacement from rat cortical α2 *receptor binding sites
(a) Radioligand--[9,10(n)-^3 H]9,10-Dihydroergocryptine (Amersham International, TRK 555, 17.5 Ci/mmole) was used as a 1 μCi/1 μl solution and this stock solution was diluted 1/6250 in assay buffer and 0.1 ml volumes of this were added to 2 ml binding assays. =0.45 nM and =0.016 μCi/binding assay
*In cortical membranes, [^3 H]dihydroergocryptine binds to both α1 and α2 receptor binding sites under the conditions of assay described here, approximately 80% of the binding is associated with α2 receptors.
(§1) (b) Membrane preparation--As for Test B
(c) Non-specific binding--As for Test B
(d) Displacing compounds--As for Test B
(e) Assay protocol--As for Test B with the exception that the binding assays were incubated at 25° C. for 45 minutes in the dark.

[2] = molecular target: rat cortical muscarinic receptor; experiment: Test D: [3H]Quinuclidinyl benzylate displacement from rat cortical muscarinic receptor binding sites; details: rat cortical membranes, [3H]quinuclidinyl benzylate 0.31 nM, 25° C., 60 minutes; read-out: Test D MUSC IC50
Protocol: Test D--[^3 H]Quinuclidinyl benzylate displacement from rat cortical muscarinic receptor binding sites
(a) Radioligand--DL-[3-^3 H]Quinuclidinyl benzylate (Amersham International, TRK 506, 12 Ci/mmol) was used as a 1 μCi/1 μl solution and this stock solution was diluted 1/13333 in assay buffer and 0.1 ml volumes of this were added to 2 ml binding assay =0.31 nM and =0.0075 μCi/binding assay
as §1
(c) Non-specific binding--Non-specific binding was accounted for by the inclusion of 100 μM oxotremorine sesquifumarate in blank binding assays and this required a stock solution of 2 mM in distilled H2 O.
(d) Displacement compounds--As for Test B
(e) Assay protocol--As for Test B with the exception that the binding assays were incubated at 25° C. for 60 minutes.

Sequence of rat striatal dopamine receptor (P61169 whole entry): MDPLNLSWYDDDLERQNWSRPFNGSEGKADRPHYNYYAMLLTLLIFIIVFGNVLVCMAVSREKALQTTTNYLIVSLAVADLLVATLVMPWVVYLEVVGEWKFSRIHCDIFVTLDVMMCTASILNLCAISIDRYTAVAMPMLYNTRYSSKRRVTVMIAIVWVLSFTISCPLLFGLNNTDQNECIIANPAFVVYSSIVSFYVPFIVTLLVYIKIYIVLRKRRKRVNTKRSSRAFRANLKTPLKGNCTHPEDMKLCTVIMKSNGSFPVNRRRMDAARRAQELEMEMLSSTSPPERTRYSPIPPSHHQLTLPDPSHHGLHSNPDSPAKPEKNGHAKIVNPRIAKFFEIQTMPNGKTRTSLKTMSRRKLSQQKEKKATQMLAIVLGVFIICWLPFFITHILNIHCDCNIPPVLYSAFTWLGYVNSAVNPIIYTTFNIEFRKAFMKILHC

Structure (SMILES) | IC50 [1] [nM] | IC50 (rat cortical α1 receptor) [nM] | IC50 (rat cortical α2 receptor) [nM] | IC50 [2] [nM]
Cc1ccc2sc3c(c(=O)c2c1)CNCC3 [Example 2, 1,2,3,4-tetrahydro-8-methyl-10H-(1)benzothiopyrano[3,2-c]pyridin-10-one hydrochloride] | > 10000 | > 10000 | 3300 | 45700
O=C(CN1CCc2sc3ccccc3c(=O)c2C1)c1ccccc1 [Example 33] | > 10000 | > 10000 | > 10000 | > 100000
NC(=O)CCN1CCc2sc3ccccc3c(=O)c2C1 [Example 23, 2-(2-carbamoylethyl)-1,2,3,4-tetrahydro-10H-(1)-benzothiopyrano[3,2-c]pyridin-10-one hydrochloride] | 4200 | 5900 | 3000 | > 100000
CCN1CCc2sc3ccccc3c(=O)c2C1 [Example 13, 2-ethyl-1,2,3,4-tetrahydro-10H-(1)-benzothiopyrano[3,2-c]pyridin-10-one hydrochloride] | 1000 | 1500 | 290 | 44700
CCCN1CCc2sc3ccccc3c(=O)c2C1 [Example 11, 1,2,3,4-tetrahydro-2-n-propyl-10H-(1)-benzothiopyrano[3,2-c]pyridin-10-one hydrochloride] | 490 | 1300 | 150 | > 100000
COc1ccc2c(=O)c3c(sc2c1)CCNC3 [Example 3, 1,2,3,4-tetrahydro-7-methoxy-10H-(1)-benzothiopyrano[3,2-c]pyridin-10-one hydrochloride] | > 10000 | > 10000 | 4300 | 26900
COc1ccc2sc3c(c(=O)c2c1)CNCC3 [Example 4, 1,2,3,4-tetrahydro-8-methoxy-10H-(1)-benzothiopyrano[3,2-c]pyridin-10-one hydrochloride] | > 10000 | 7800 | 2900 | 57500
C=CCN1CCc2sc3ccccc3c(=O)c2C1 [Example 34] | 2810 | 3980 | 390 | 37200

Now those with a lower IC50 [1], led by results:

IC50 [1] [nM] | IC50 (rat cortical α1 receptor) [nM] | IC50 (rat cortical α2 receptor) [nM] | IC50 [2] [nM] | Structure (SMILES)
170 | 2630 | 150 | > 100000 | O=c1c2c(sc3ccccc13)CCN(CC1=CCCCC1)C2 [Example 29]
150 | 2820 | 320 | > 100000 | O=c1c2c(sc3ccccc13)CCN(CC1CCCCCC1)C2 [Example 28]
130 | 400 | 80 | 15800 | CCCCCCN1CCc2sc3ccccc3c(=O)c2C1 [Example 18, 2-n-hexyl-1,2,3,4-tetrahydro-10H-(1)-benzothiopyrano[3,2-c]pyridin-10-one hydrochloride]
70 | 310 | 70 | 39800 | CCCCCN1CCc2sc3ccccc3c(=O)c2C1 [Example 17, 1,2,3,4-tetrahydro-2-n-pentyl-10H-(1)-benzothiopyrano[3,2-c]pyridin-10-one hydrochloride]
60 | 680 | 170 | 87100 | CC(C)CCN1CCc2sc3ccccc3c(=O)c2C1 [Example 15, 1,2,3,4-tetrahydro-2-isopentyl-10H-(1)-benzothiopyrano[3,2-c]pyridin-10-onehydrochloride]
40 | 680 | 50 | 57500 | O=c1c2c(sc3ccccc13)CCN(CC1CCCC1)C2 [Example 27, 2-cyclopentylmethyl-1,2,3,4-tetrahydro-10H-(1)-benzothiopyrano[3,2-c]pyridin-10-one]
20 | 20 | 20 | > 100000 | O=C(CCCN1CCc2sc3ccccc3c(=O)c2C1)c1ccc(F)cc1 [Example 16, 2-(4-p-fluorophenyl-4-oxobutyl)-1,2,3,4-tetrahydro-10H-(1)-benzothiopyrano-[3,2-c]pyridin-10-one hydrochloride]
